{"source": "paper PMC10969742", "about": "“A Phase I Study of the Oral Dual-Acting Pan-PI3K/mTOR Inhibitor Bimiralisib in Patients with Advanced Solid Tumors” (Cancers, 2024)", "experiment": "Plasma pharmacokinetics of bimiralisib, non-compartmental analysis (LC-MS)", "assay_type": "in vivo, human", "conditions": "for AUC(0-t) / Cmax / Tmax: human, plasma, oral; for Cmax: read-out: Cmax Mean (%CV)", "description": "Blood samples were collected to enable full PK profiling of bimiralisib. The PK samples were taken pre-dose and at 0.5, 1, 2, 4, 6, 8, and 24 h post-dosing in the three schedules, with additional timepoints depending on the schedule (48 h in the continuous schedule, 12, 16, and 48 h in intermittent schedule A and 12, 16, and 72 h in intermittent schedule B). PK sampling was repeated on cycle 1 Day 8 (continuous schedule: pre-dose and 1 h post-dose; intermittent schedules A and B: pre-dose and 0.5, 1, 2, 4, 6, 8, and 24 h post-dose), on cycle 1 Day 15 (continuous schedule: pre-dose and 0.5, 1, 2, 4, 6 and 8 h post-dose; intermittent schedules A and B: pre-dose and 4 h post-dose), and on cycle 2 Day 1 (continuous dosing: pre-dose and 1 h post-dose). Samples were sent to a central laboratory for analysis using liquid-chromatography mass spectrometry. The pharmacokinetics of bimiralisib were determined by non-compartmental analysis. Area under the concentration vs. time curve (AUC) was calculated using the linear up log down trapezoidal method. Accumulation was calculated as the ratio of cycle 1 on Day 15 AUC0–8h versus cycle 1 on Day -3 AUC0–8h.", "note": "Like-named read-outs stand apart in the source and are kept apart here.", "data": [{"smiles": "Nc1cc(C(F)(F)F)c(-c2nc(N3CCOCC3)nc(N3CCOCC3)n2)cn1", "note": "[bimiralisib, 5-(4,6-Dimorpholino-1,3,5-triazin-2-yl)-4-(trifluoromethyl)pyridin-2-amine]", "values": [{"measurement": "AUC(0-t)", "setting": "120 mg, Intermittent Dose Schedule A, 120 mg, Day -3, 4 patients, read-out: AUC0–8 Geometric Mean (%CV)", "result": 2.59, "unit": "µg·h/mL"}, {"measurement": "AUC(0-t)", "setting": "120 mg, Intermittent Dose Schedule A, 120 mg, Day -3, 4 patients, read-out: AUC0–24 Geometric Mean (%CV)", "result": 5.59, "unit": "µg·h/mL"}, {"measurement": "Cmax", "setting": "120 mg, Intermittent Dose Schedule A, 120 mg, Day -3, 4 patients", "result": 0.549, "unit": "µg/mL"}, {"measurement": "Tmax", "setting": "120 mg, Intermittent Dose Schedule A, 120 mg, Day -3, 4 patients, read-out: Tmax Median, (Range)", "result": 3, "unit": "h"}, {"measurement": "AUC(0-t)", "setting": "120 mg, Intermittent Dose Schedule B, 120 mg, Day 1, 3 patients, read-out: AUC0–8 Geometric Mean (%CV)", "result": 1.53, "unit": "µg·h/mL"}, {"measurement": "AUC(0-t)", "setting": "120 mg, Intermittent Dose Schedule B, 120 mg, Day 1, 3 patients, read-out: AUC0–24 Geometric Mean (%CV)", "result": 3.34, "unit": "µg·h/mL"}, {"measurement": "Cmax", "setting": "120 mg, Intermittent Dose Schedule B, 120 mg, Day 1, 3 patients", "result": 0.471, "unit": "µg/mL"}, {"measurement": "Tmax", "setting": "120 mg, Intermittent Dose Schedule B, 120 mg, Day 1, 3 patients, read-out: Tmax Median, (Range)", "result": 1, "unit": "h"}, {"measurement": "AUC(0-t)", "setting": "120 mg, Intermittent Dose Schedule B, 120 mg, Day 8, 3 patients, read-out: AUC0–8 Geometric Mean (%CV)", "result": 2.21, "unit": "µg·h/mL"}, {"measurement": "AUC(0-t)", "setting": "120 mg, Intermittent Dose Schedule B, 120 mg, Day 8, 3 patients, read-out: AUC0–24 Geometric Mean (%CV)", "result": 5.85, "unit": "µg·h/mL"}, {"measurement": "Cmax", "setting": "120 mg, Intermittent Dose Schedule B, 120 mg, Day 8, 3 patients", "result": 0.594, "unit": "µg/mL"}, {"measurement": "Tmax", "setting": "120 mg, Intermittent Dose Schedule B, 120 mg, Day 8, 3 patients, read-out: Tmax Median, (Range)", "result": 1, "unit": "h"}, {"measurement": "AUC(0-t)", "setting": "140 mg, Intermittent Dose Schedule A, 140 mg, Day 8, 6 patients, read-out: AUC0–8 Geometric Mean (%CV)", "result": 3.22, "unit": "µg·h/mL"}, {"measurement": "Cmax", "setting": "140 mg, Intermittent Dose Schedule A, 140 mg, Day 8, 6 patients", "result": 0.923, "unit": "µg/mL"}, {"measurement": "Tmax", "setting": "140 mg, Intermittent Dose Schedule A, 140 mg, Day 8, 6 patients, read-out: Tmax Median, (Range)", "result": 1, "unit": "h"}, {"measurement": "AUC(0-t)", "setting": "140 mg, Intermittent Dose Schedule A, 140 mg, Day 8, n = 3, read-out: AUC0–24 Geometric Mean (%CV)", "result": 7.59, "unit": "µg·h/mL"}, {"measurement": "AUC(0-t)", "setting": "140 mg, Intermittent Dose Schedule A, 140 mg, Day -3, 6 patients, read-out: AUC0–8 Geometric Mean (%CV)", "result": 2.58, "unit": "µg·h/mL"}, {"measurement": "AUC(0-t)", "setting": "140 mg, Intermittent Dose Schedule A, 140 mg, Day -3, 6 patients, read-out: AUC0–24 Geometric Mean (%CV)", "result": 5.81, "unit": "µg·h/mL"}, {"measurement": "Cmax", "setting": "140 mg, Intermittent Dose Schedule A, 140 mg, Day -3, 6 patients", "result": 0.709, "unit": "µg/mL"}, {"measurement": "Tmax", "setting": "140 mg, Intermittent Dose Schedule A, 140 mg, Day -3, 6 patients, read-out: Tmax Median, (Range)", "result": 1, "unit": "h"}, {"measurement": "AUC(0-t)", "setting": "140 mg, Intermittent Dose Schedule B, 140 mg, Day 1, 3 patients, read-out: AUC0–8 Geometric Mean (%CV)", "result": 4.15, "unit": "µg·h/mL"}, {"measurement": "AUC(0-t)", "setting": "140 mg, Intermittent Dose Schedule B, 140 mg, Day 1, 3 patients, read-out: AUC0–24 Geometric Mean (%CV)", "result": 9.74, "unit": "µg·h/mL"}, {"measurement": "Cmax", "setting": "140 mg, Intermittent Dose Schedule B, 140 mg, Day 1, 3 patients", "result": 1.01, "unit": "µg/mL"}, {"measurement": "Tmax", "setting": "140 mg, Intermittent Dose Schedule B, 140 mg, Day 1, 3 patients, read-out: Tmax Median, (Range)", "result": 1, "unit": "h"}, {"measurement": "AUC(0-t)", "setting": "140 mg, Intermittent Dose Schedule B, 140 mg, Day 8, 3 patients, read-out: AUC0–8 Geometric Mean (%CV)", "result": 5.16, "unit": "µg·h/mL"}, {"measurement": "Cmax", "setting": "140 mg, Intermittent Dose Schedule B, 140 mg, Day 8, 3 patients", "result": 1.56, "unit": "µg/mL"}, {"measurement": "Tmax", "setting": "140 mg, Intermittent Dose Schedule B, 140 mg, Day 8, 3 patients, read-out: Tmax Median, (Range)", "result": 1, "unit": "h"}, {"measurement": "AUC(0-t)", "setting": "140 mg, Intermittent Dose Schedule B, 140 mg, Day 8, n = 2, read-out: AUC0–24 Geometric Mean (%CV)", "result": 12.6, "unit": "µg·h/mL"}, {"measurement": "AUC(0-t)", "setting": "160 mg, Intermittent Dose Schedule A, 160 mg, Day 8, 3 patients, read-out: AUC0–8 Geometric Mean (%CV)", "result": 4.08, "unit": "µg·h/mL"}, {"measurement": "AUC(0-t)", "setting": "160 mg, Intermittent Dose Schedule A, 160 mg, Day 8, 3 patients, read-out: AUC0–24 Geometric Mean (%CV)", "result": 11.1, "unit": "µg·h/mL"}, {"measurement": "Cmax", "setting": "160 mg, Intermittent Dose Schedule A, 160 mg, Day 8, 3 patients", "result": 0.857, "unit": "µg/mL"}, {"measurement": "Tmax", "setting": "160 mg, Intermittent Dose Schedule A, 160 mg, Day 8, 3 patients, read-out: Tmax Median, (Range)", "result": 2, "unit": "h"}, {"measurement": "AUC(0-t)", "setting": "160 mg, Intermittent Dose Schedule A, 160 mg, Day -3, 3 patients, read-out: AUC0–8 Geometric Mean (%CV)", "result": 2.48, "unit": "µg·h/mL"}, {"measurement": "AUC(0-t)", "setting": "160 mg, Intermittent Dose Schedule A, 160 mg, Day -3, 3 patients, read-out: AUC0–24 Geometric Mean (%CV)", "result": 5.83, "unit": "µg·h/mL"}, {"measurement": "Cmax", "setting": "160 mg, Intermittent Dose Schedule A, 160 mg, Day -3, 3 patients", "result": 0.539, "unit": "µg/mL"}, {"measurement": "Tmax", "setting": "160 mg, Intermittent Dose Schedule A, 160 mg, Day -3, 3 patients, read-out: Tmax Median, (Range)", "result": 1, "unit": "h"}, {"measurement": "AUC(0-t)", "setting": "160 mg, Intermittent Dose Schedule B, 160 mg, Day 1, 3 patients, read-out: AUC0–8 Geometric Mean (%CV)", "result": 1.05, "unit": "µg·h/mL"}, {"measurement": "AUC(0-t)", "setting": "160 mg, Intermittent Dose Schedule B, 160 mg, Day 1, 3 patients, read-out: AUC0–24 Geometric Mean (%CV)", "result": 3.7, "unit": "µg·h/mL"}, {"measurement": "Cmax", "setting": "160 mg, Intermittent Dose Schedule B, 160 mg, Day 1, 3 patients", "result": 0.317, "unit": "µg/mL"}, {"measurement": "Tmax", "setting": "160 mg, Intermittent Dose Schedule B, 160 mg, Day 1, 3 patients, read-out: Tmax Median, (Range)", "result": 12, "unit": "h"}, {"measurement": "AUC(0-t)", "setting": "160 mg, Intermittent Dose Schedule B, 160 mg, Day 8, 3 patients, read-out: AUC0–8 Geometric Mean (%CV)", "result": 1.77, "unit": "µg·h/mL"}, {"measurement": "Cmax", "setting": "160 mg, Intermittent Dose Schedule B, 160 mg, Day 8, 3 patients", "result": 0.325, "unit": "µg/mL"}, {"measurement": "Tmax", "setting": "160 mg, Intermittent Dose Schedule B, 160 mg, Day 8, 3 patients, read-out: Tmax Median, (Range)", "result": 8, "unit": "h"}, {"measurement": "AUC(0-t)", "setting": "200 mg, Intermittent Dose Schedule A, 200 mg, Day 8, 4 patients, read-out: AUC0–8 Geometric Mean (%CV)", "result": 4.46, "unit": "µg·h/mL"}, {"measurement": "Tmax", "setting": "200 mg, Intermittent Dose Schedule A, 200 mg, Day 8, 4 patients, read-out: Tmax Median, (Range)", "result": 2, "unit": "h"}, {"measurement": "AUC(0-t)", "setting": "200 mg, Intermittent Dose Schedule A, 200 mg, Day 8, n = 2, read-out: AUC0–24 Geometric Mean (%CV)", "result": 15.9, "unit": "µg·h/mL"}, {"measurement": "AUC(0-t)", "setting": "200 mg, Intermittent Dose Schedule A, 200 mg, Day -3, 4 patients, read-out: AUC0–8 Geometric Mean (%CV)", "result": 3.48, "unit": "µg·h/mL"}, {"measurement": "AUC(0-t)", "setting": "200 mg, Intermittent Dose Schedule A, 200 mg, Day -3, 4 patients, read-out: AUC0–24 Geometric Mean (%CV)", "result": 7.05, "unit": "µg·h/mL"}, {"measurement": "Cmax", "setting": "200 mg, Intermittent Dose Schedule A, 200 mg, Day -3, 4 patients", "result": 1.03, "unit": "µg/mL"}, {"measurement": "Tmax", "setting": "200 mg, Intermittent Dose Schedule A, 200 mg, Day -3, 4 patients, read-out: Tmax Median, (Range)", "result": 2, "unit": "h"}, {"measurement": "AUC(0-t)", "setting": "200 mg, Intermittent Dose Schedule B, 200 mg, Day 1, 4 patients, read-out: AUC0–8 Geometric Mean (%CV)", "result": 3.19, "unit": "µg·h/mL"}, {"measurement": "AUC(0-t)", "setting": "200 mg, Intermittent Dose Schedule B, 200 mg, Day 1, 4 patients, read-out: AUC0–24 Geometric Mean (%CV)", "result": 8.01, "unit": "µg·h/mL"}, {"measurement": "Cmax", "setting": "200 mg, Intermittent Dose Schedule B, 200 mg, Day 1, 4 patients", "result": 0.734, "unit": "µg/mL"}, {"measurement": "Tmax", "setting": "200 mg, Intermittent Dose Schedule B, 200 mg, Day 1, 4 patients, read-out: Tmax Median, (Range)", "result": 1.5, "unit": "h"}, {"measurement": "AUC(0-t)", "setting": "200 mg, Intermittent Dose Schedule B, 200 mg, Day 8, 4 patients, read-out: AUC0–8 Geometric Mean (%CV)", "result": 5.8, "unit": "µg·h/mL"}, {"measurement": "Cmax", "setting": "200 mg, Intermittent Dose Schedule B, 200 mg, Day 8, 4 patients", "result": 1.2, "unit": "µg/mL"}, {"measurement": "Tmax", "setting": "200 mg, Intermittent Dose Schedule B, 200 mg, Day 8, 4 patients, read-out: Tmax Median, (Range)", "result": 1.5, "unit": "h"}, {"measurement": "AUC(0-t)", "setting": "200 mg, Intermittent Dose Schedule B, 200 mg, Day 8, n = 3, read-out: AUC0–24 Geometric Mean (%CV)", "result": 14.7, "unit": "µg·h/mL"}, {"measurement": "Tmax", "setting": "after the first dose, all three dosing schedules, range, 0.5–48 h, read-out: Median time to reach the peak plasma concentration (Tmax)", "result": 2, "unit": "h"}, {"measurement": "Dose-exposure relationship", "setting": "intermittent doses higher than 140 mg", "result": "less than linear dose-exposure relationship"}]}]}
